ChEMBL document CHEMBL3217493, “Approaches to discover non-ATP site kinase inhibitors” (Medchemcomm, 2013)

Biological target: Mitogen-activated protein kinase 1 (Homo sapiens, UniProt P28482)
Test: Binding affinity to ERK2 (unknown origin)

Mitogen-activated protein kinase 1, sequence (P28482 whole entry): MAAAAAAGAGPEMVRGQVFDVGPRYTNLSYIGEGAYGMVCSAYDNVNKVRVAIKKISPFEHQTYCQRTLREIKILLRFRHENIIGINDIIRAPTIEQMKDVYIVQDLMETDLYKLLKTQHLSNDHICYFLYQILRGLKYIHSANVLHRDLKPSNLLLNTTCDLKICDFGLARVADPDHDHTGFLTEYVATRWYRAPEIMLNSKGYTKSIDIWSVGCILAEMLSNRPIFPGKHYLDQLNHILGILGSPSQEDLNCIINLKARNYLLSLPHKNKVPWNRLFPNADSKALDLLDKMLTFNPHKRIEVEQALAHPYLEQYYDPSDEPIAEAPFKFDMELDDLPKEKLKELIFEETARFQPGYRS

Kd: 5 µM
SMILES: COc1ccc(/C=C2\SC(=O)N(CCN)C2=O)cc1
